Reference: ChEMBL document CHEMBL1133992, “Hydrolase and sialyltransferase activities of trypanosoma cruzi trans-sialidase towards NeuAc-alpha-2,3-gal-Gal-beta-O-PNP” (Bioorg Med Chem Lett, 2001)
Calls of active or inactive are those of the source. The calls are words filed in the database; no cut-off is given here.

Tests used:
Vibrio cholerae = assay: Inhibitory activity against Vibrio cholerae sialidase at mM concentration, Not significant
Trypanosoma cruzi [1] = assay: Km value for transferase activity of Trypanosoma cruzi trans-sialidase
Trypanosoma cruzi [2] = assay: Km value for hydrolase activity of Trypanosoma cruzi trans-sialidase

**Q.** With `CCCCCCCCOC1OC(CO)C(O)C(SC2(C(=O)O)CC(O)C(NC(C)=O)C([C@H](O)[C@H](O)CO)O2)C1O` (stereo partly drawn) as the compound, how does the inhibition (Vibrio cholerae) read?
**A.** inactive

**Q.** And the Km (Trypanosoma cruzi [1])?
**A.** > 5 mM

**Q.** What about the Km (Trypanosoma cruzi [2]) of the same compound?
**A.** > 5 mM
